# Test results as given in publication PMC3160198 (The Journal of neuroscience : the official journal of the …, 2011).
# Tests used:
# [1] = target: α1β2 GABAA receptor (Rattus norvegicus, UniProt P62813+P63138); assay: whole-cell patch clamp in HEK […] cells, potentiation of GABA current; assay type: cell-based; conditions: GABA 1 μM (EC50); pH 7.4; -60 mV; positive modulator
# [2] = target: homomeric ρ1 GABAC receptor (GABAρ1) (Homo sapiens, UniProt P24046); assay: two-electrode voltage clamp in Xenopus oocytes, potentiation of GABA current; assay type: cell-based; conditions: 3000 µM, GABA 0.3 μM, pH 7.0, -70 mV
# Sequence of homomeric ρ1 GABAC receptor (GABAρ1) (P24046 22-479): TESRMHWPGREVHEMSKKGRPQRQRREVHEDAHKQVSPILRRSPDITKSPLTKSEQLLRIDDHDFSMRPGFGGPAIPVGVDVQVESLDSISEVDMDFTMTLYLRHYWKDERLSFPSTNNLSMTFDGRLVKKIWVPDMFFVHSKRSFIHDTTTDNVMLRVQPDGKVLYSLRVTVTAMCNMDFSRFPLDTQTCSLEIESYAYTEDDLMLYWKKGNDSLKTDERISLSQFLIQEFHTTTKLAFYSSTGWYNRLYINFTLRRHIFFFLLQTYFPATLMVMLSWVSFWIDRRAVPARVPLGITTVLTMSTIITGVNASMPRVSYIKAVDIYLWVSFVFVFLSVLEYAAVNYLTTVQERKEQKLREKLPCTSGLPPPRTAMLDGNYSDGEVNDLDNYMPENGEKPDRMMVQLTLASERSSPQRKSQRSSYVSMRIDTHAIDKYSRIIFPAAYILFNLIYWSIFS
# Sequence of α1β2 GABAA receptor (P62813 28-455): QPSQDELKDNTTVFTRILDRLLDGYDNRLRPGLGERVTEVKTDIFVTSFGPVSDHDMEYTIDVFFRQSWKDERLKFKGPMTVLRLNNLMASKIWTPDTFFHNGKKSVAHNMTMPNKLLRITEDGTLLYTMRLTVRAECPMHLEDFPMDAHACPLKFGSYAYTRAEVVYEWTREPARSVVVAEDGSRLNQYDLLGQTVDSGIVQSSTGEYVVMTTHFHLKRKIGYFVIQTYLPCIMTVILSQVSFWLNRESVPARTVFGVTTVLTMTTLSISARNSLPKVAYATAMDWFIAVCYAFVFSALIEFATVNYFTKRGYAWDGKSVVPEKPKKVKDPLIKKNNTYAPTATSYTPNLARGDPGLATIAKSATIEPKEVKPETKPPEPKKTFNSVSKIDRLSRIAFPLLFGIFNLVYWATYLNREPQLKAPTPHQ
# Sequence of α1β2 GABAA receptor (P63138 26-474): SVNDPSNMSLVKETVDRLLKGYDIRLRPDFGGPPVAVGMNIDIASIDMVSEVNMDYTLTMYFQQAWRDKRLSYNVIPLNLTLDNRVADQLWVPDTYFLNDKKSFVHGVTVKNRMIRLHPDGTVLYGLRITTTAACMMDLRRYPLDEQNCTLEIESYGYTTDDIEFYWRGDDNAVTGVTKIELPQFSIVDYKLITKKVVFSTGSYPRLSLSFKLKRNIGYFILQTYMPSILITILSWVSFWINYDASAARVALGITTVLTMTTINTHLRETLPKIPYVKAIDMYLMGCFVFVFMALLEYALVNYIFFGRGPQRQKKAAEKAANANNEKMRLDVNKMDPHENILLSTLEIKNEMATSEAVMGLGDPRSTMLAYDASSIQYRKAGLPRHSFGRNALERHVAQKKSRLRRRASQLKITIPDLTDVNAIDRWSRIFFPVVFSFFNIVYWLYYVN
smiles,measurement,setting,value
"O=C1O[C@H]([C@@H](O)CO)C(O)=C1O [Asc, Ascorbic acid]",% potentiation at 10 mM,[1],~ 600%
same,% Potentiation,[2]; positive allosteric modulator,139.5 ± 87.5%
"O=C1O[C@H]([C@H](O)CO)C(O)=C1O [D-isoAsc, D-isoascorbic acid]",% Potentiation,[2]; positive allosteric modulator,33.5 ± 12.5%
"O=C1O[C@H]([C@@H](O)CO)C(=O)C1=O [DHA, L-dehydroascorbic acid]",% Potentiation,[2],-1.6 ± 4.2%
